# From PMC11123961, “Design, Synthesis, and Biological Evaluation of the Quorum-Sensing Inhibitors of Pseudomonas aeruginosa PAO1” (Molecules, 2024)
# Legend:
# Format in all cases: cell-based, Pseudomonas aeruginosa
# [1] = system: P. aeruginosa PAO1 biofilms; experiment: Biofilm quantification, crystal violet assay; details: Pseudomonas aeruginosa, PAO1
# Experimental: 3.2.3. Biofilm Quantification Assays
# The crystal violet assay was used to quantitatively analyze the biofilm, as previously described. P. aeruginosa PAO1 log phase was diluted 100 times with fresh LB medium and incubated for 3.5 h at 37 °C and 150 rpm. After that, the P. aeruginosa PAO1 bacterial culture was added to the 96-well plate. P. aeruginosa PAO1 bacterial culture in 90 μL was added to the experimental group, and 10 μL of the test compound at a final concentration of 325 μM, 162.5 μM, 81.25 μM, 40 μM, 20 μM, and 10 μM. Each well received 100 μL of bacterial culture for the control group and 100 μL of fresh LB medium for the blank group. After 20 h of incubation at 37 °C, the bacterial culture was removed from the 96-well plate, and it was dried after three PBS washes. Each well received […] of 0.1% crystal violet (CV) for a 15 min staining period. Each well was washed three times with PBS after the CV was removed. Lastly, each well received 150 μL of 33% glacial acetic acid, and a Biotek multi-function microplate reader was used to measure the absorbance value at 595 nm. The biofilm inhibition rate was calculated as follows = (OD595 blank − OD595 sample)/OD595 blank × 100%.
# [2] = system: P. aeruginosa PAO1 pyocyanin; experiment: Pyocyanin quantification assay
# Experimental: The method used to perform the pyocyanin quantification assay was previously reported. In short, P. aeruginosa PAO1 was cultivated in LB medium to reach the logarithmic growth phase at 37 °C and 150 rpm. Following this, the medium (2% peptone, 1% K2SO4, 0.3% MgCl2) was diluted 10 times. A 5 mL bacterial culture containing and excluding the compound (162.5 μM, 81.25 μM, and 20 μM) was incubated for 16 h at 37 °C at 150 rpm. The culture was centrifuged at 1665 g for 10 min in order to extract pyocyanin. The supernatant was then collected and extracted using 3 mL of chloroform. The upper aqueous phase was then collected via centrifugation at 1665 g for 10 min after 1 mL of 0.2 M HCl was combined with the chloroform layer. Absorbance was measured at 520 nm. The pyocyanin inhibition rate was calculated as follows = (OD520 blank − OD520 sample)/OD520 blank × 100%.
# [3] = system: P. aeruginosa PAO1 rhamnolipid; experiment: Rhamnolipid quantification assay (orcinol)
# Experimental: The rhamnolipid quantification assay was as follows: sulfuric acid–orcinol concentrated solution was used to examine the compound’s impact on P. aeruginosa PAO1 rhamnolipid. Initially, 50 μg/mL, 100 μg/mL, 200 μg/mL, and 400 μg/mL of a prepared solution of rhamnose standard at a concentration of 1 mg/mL in tilled water were diluted. Subsequently, 900 μL of 0.19% orcinol-concentrated sulfuric acid solution (0.19% orcinol (w/v), 50% H2SO4) was mixed with 100 μL of each concentration of rhamnose standard solution, and the mixture was incubated for 30 min at 80 °C in a water bath. After cooling to 25 °C, the OD value at 421 nm was measured. A standard curve of rhamnose concentration–absorbance values was established using Excel software 2019.
# After cultivating P. aeruginosa PAO1 in LB medium for a logarithmic growth phase at 37 °C and 150 rpm, the bacterial culture was diluted with PPGAS solution (20 mM KCl, 20 mM NH4Cl, 0.5% glucose, 1.6 mM MgSO4, 120 mM Tris-HCl, and 1.0% peptone) to OD600 = 0.05. […] After centrifuging the bacterial cultures for 10 min at 1665 g, the supernatants were gathered. After extracting the supernatants twice using ethyl acetate, the organic layers were gathered and allowed to dry out at room temperature overnight. After resuspending the solid product in deionized water, 100 μL was added to 900 μL of 0.19% orcinol in 50% H2SO4, and the mixture was incubated for 30 min at 80 °C in a water bath. After cooling to 25 °C, the OD value at 421 nm was measured. The rhamnolipid content in the sample was determined according to a rhamnose standard curve (rhamnolipid content = 2.5 × rhamnose content).
# [4] = system: P. aeruginosa PAO1 swarming motility; experiment: Swarming motility analysis; details: 40 μM, 81.25 μM and 162.5 μM, swarming agar plates
# Experimental: 3.2.6. Swarming Motility Analysis
# After being inoculated into LB medium, P. aeruginosa PAO1 was cultivated at 37 °C and 150 rpm until OD600 = 1.0. Then, 1 μL of P. aeruginosa PAO1 bacterial medium was inoculated into the center of swarming solid medium (0.8% nutrient broth (BD), 0.5% glucose, 0.3% agar (BD)) and cultured at 30 °C for 16 h. Then, the colonies of the swarming plate were picked and added to the center of the cooled swarming solid medium (0.8% nutrient broth (BD), 0.5% glucose, 0.5% agar (BD)), which had been supplemented with compounds and cultured at 30 °C for 24 h.
smiles,measurement,setting,value
O=C(CCCOc1ccc(I)cc1)NN1CCCOC1=O [Y-31],inhibition at 40 µM,"[1]; 40 μM, read-out: P. aeruginosa PAO1 biofilm inhibition rate",40.4%
same,inhibition at 20.3125 µM,"[1]; concentration 20.3125 (unit not given in Table S1; μM in method), 20 h, read-out: Inhibition ratio of biofilm",21.1%
same,inhibition at 40.625 µM,"[1]; concentration 40.625 (unit not given in Table S1; μM in method), 20 h, read-out: Inhibition ratio of biofilm",40.4%
same,inhibition at 81.25 µM,"[1]; concentration 81.25 (unit not given in Table S1; μM in method), 20 h, read-out: Inhibition ratio of biofilm",39.5%
same,inhibition at 162.5 µM,"[1]; concentration 162.5 (unit not given in Table S1; μM in method), 20 h, read-out: Inhibition ratio of biofilm",42.1%
same,inhibition at 325 µM,"[1]; concentration 325 (unit not given in Table S1; μM in method), 20 h, read-out: Inhibition ratio of biofilm",41%
same,Inhibition rate of pyocyanin,[2]; 162.5 μM,22.5%
same,inhibition at 40 µM,"[2]; Pseudomonas aeruginosa, PAO1, read-out: Inhibition rate of pyocyanin, 40 μM",10%
same,inhibition at 81.5 µM,"[2]; Pseudomonas aeruginosa, PAO1, read-out: Inhibition rate of pyocyanin, 81.5 μM",17.1%
same,inhibition at 162.5 µM,"[2]; Pseudomonas aeruginosa, PAO1, read-out: Inhibition rate of pyocyanin, 162.5 μM",22.5%
same,Inhibition rate of rhamnolipid,[3]; 162.5 μM,6.1%
same,inhibition at 40 µM,"[3]; Pseudomonas aeruginosa, PAO1, read-out: Inhibition rate of rhamnolipid, 40 μM",0.4%
same,inhibition at 81.5 µM,"[3]; Pseudomonas aeruginosa, PAO1, read-out: Inhibition rate of rhamnolipid, 81.5 μM",5.8%
same,inhibition at 162.5 µM,"[3]; Pseudomonas aeruginosa, PAO1, read-out: Inhibition rate of rhamnolipid, 162.5 μM",6.13%
same,Swarming motility compared to the control group,[4],significantly reduced swarming motility
